Laboratory results: patent US4999351A, “7-aryl and heteroaryl ethers of desacetylforskolin” (Hoechst-Roussel Pharmaceuticals, Inc., priority 1989, dated 1991)
Where a name gives a salt, the structure may show the parent alone.

These compounds were tested on isolated guinea pig atria (assay: Inotropic activity: increase in contractile force in isolated guinea pig atria). Conditions: Cavia porcellus; isolated left atrium, male guinea pig; 50% change of contractile force over the stabilized rate; Kreb's solution, 37° C., 3 Hz stimulation; read-out: Extrapolated ED50 value (concentration increasing contractile force by 50%).
Description: The aryl and heteroaryl ethers of desacetylforskolin of the present invention are useful in the treatment of cardiac failure by virtue of their ability to elicit a positive inotropic effect as evidenced by an increase in contractile force in an isolated guinea pig atria assay which is performed as follows: Male guinea pigs weighing 200-300 grams are stunned with a blow to the back of the head. The heart is rapidly removed and placed in a petri dish containing Kreb's solution. The ventricle is separated from the atria, the atria are sectioned in the right and left atria, and double-O silk ligatures are tied to the apex of the left atrium. The atrium is fixed to a pair of platinum plate electrodes and suspended in a 20 ml tissue bath containing Kreb's solution aerated with 95% oxygen-5% carbon dioxide at 37° C. One end of the atrium is fixed to a hook in the electrode and the other end is connected to a Grass FT03 force displacement transducer. Resting tension and stabilization time are the same as described above. The atrium is stimulated at 3 Hz, 0.5 msec duration at supramaximal voltage (constant current) via a Grass S88 stimulator and constant current unit. Force of contraction is continuously displaced on a Gould recorder Test drug is prepared as in section A and is added to the tissue baths in the same fashion. Change in contractile force from baseline is determined for each concentration, and the change in contractile force (g) is plotted against accumulated drug concentration (ug/ml). The activity of the test drug, i.e., the increase in contractile force (g) from the stabilized force expressed as the percentage change at a given concentration is determined graphically, as in the ED50 -value, i.e., the extrapolated does (μg/ml) which increases the contractile force by 50% over the stabilized rate.

C=C[C@@]1(C)CC(=O)[C@]2(O)[C@@]3(C)[C@@H](O)CCC(C)(C)[C@@H]3[C@H](OC(=O)NCCN(C)C)[C@H](Oc3ccccn3)[C@@]2(C)O1 [A, 7-desacetyl-6-(2-dimethylaminoethylaminocarbonyl)-7-(pyridin-2-yl)forskolin hydrochloride hydrate] and C=C[C@@]1(C)CC(=O)[C@]2(O)[C@@]3(C)[C@@H](O)CCC(C)(C)[C@@H]3[C@H](O)[C@H](Oc3ncccn3)[C@@]2(C)O1 [B, 7-Desacetyl-7-(pyrimidin-2-yl)forskolin] are within 1.5-fold of each other in EC (50% increase): 0.009 µg/mL for the first, 0.01 µg/mL for the second.

For C=C[C@@]1(C)CC(=O)[C@]2(O)[C@@]3(C)[C@@H](O)CCC(C)(C)[C@@H]3[C@H](O)[C@H](OC(C)=O)[C@@]2(C)O1 [Compound C, Forskolin], the EC (50% increase) was 0.073 µg/mL.
